Measured values: patent US9096560B2, “5-heterocyclylalkyl-3-hydroxy-2-phenylcyclopent-2-enones as herbicides” (Syngenta Limited, priority 2008, dated 2015)

Tests used:
Assay type in all cases: in vivo
Lolium perenne (LOLPE) [1] = test: Example B pre-emergence herbicidal test, LOLPE; conditions: Lolium perenne, 312 h, rate 250 g/ha, evaluated after 13 days, 100=total damage to plant, 0=no damage to plant
Method: (§1) Seeds of a variety of test species were sown in standard soil in pots. After cultivation for one day (pre-emergence) or after 8 days cultivation (post-emergence) under controlled conditions in a glasshouse (at 24/16° C., day/night; 14 hours light; 65% humidity), the plants were sprayed with an aqueous spray solution derived from the formulation of the technical active ingredient in acetone/water (50:50) solution containing 0.5% Tween 20 (polyoxyethelyene sorbitan monolaurate, CAS RN 9005-64-5). The test plants were then grown in a glasshouse under controlled conditions in a glasshouse (at 24/16° C., day/night; 14 hours light; 65% humidity) and watered twice daily. After 13 days for pre and post-emergence, the test was evaluated (100=total damage to plant; 0=no damage to plant). Lolium perenne (LOLPE), Alopecurus myosuroides (ALOMY), Echinochloa crus-galli (ECHCG), Avena fatua (AVEFA) Pre-Emergence Activity

[2] = system: Echinochloa crus-galli (ECHCG); test: Example B post-emergence herbicidal test, ECHCG; conditions: Echinochloa crus-galli, 312 h, rate 250 g/ha, evaluated after 13 days, scale 0-100, read-out: Post-emergence activity ECHCG (100=total damage to plant; 0=no damage to plant)
Method: as §1, with “Post-Emergence” for “Pre-Emergence”

[3] = system: Alopecurus myosuroides (ALOMY); test: Example B post-emergence herbicidal test, ALOMY; conditions: Alopecurus myosuroides, 312 h, rate 250 g/ha, evaluated after 13 days, scale 0-100, read-out: Post-emergence activity ALOMY (100=total damage to plant; 0=no damage to plant)
Method: as §1, with “Post-Emergence” for “Pre-Emergence”

Avena fatua (AVEFA) [4] = test: Example B post-emergence herbicidal test, AVEFA; conditions: Avena fatua, 312 h, rate 250 g/ha, evaluated after 13 days, scale 0-100, read-out: Post-emergence activity AVEFA (100=total damage to plant; 0=no damage to plant)
Method: as §1, with “Post-Emergence” for “Pre-Emergence”

[5] = system: Alopecurus myosuroides (ALOMY); test: Example B pre-emergence herbicidal test, ALOMY; conditions: Alopecurus myosuroides, 312 h, rate 250 g/ha, evaluated after 13 days, 100=total damage to plant, 0=no damage to plant
Method: as §1

[6] = system: Echinochloa crus-galli (ECHCG); test: Example B pre-emergence herbicidal test, ECHCG; conditions: Echinochloa crus-galli, 312 h, rate 250 g/ha, evaluated after 13 days, 100=total damage to plant, 0=no damage to plant
Method: as §1

Avena fatua (AVEFA) [7] = test: Example B pre-emergence herbicidal test, AVEFA; conditions: Avena fatua, 312 h, rate 250 g/ha, evaluated after 13 days, 100=total damage to plant, 0=no damage to plant
Method: as §1

Lolium perenne (LOLPE) [8] = test: Example B post-emergence herbicidal test, LOLPE; conditions: Lolium perenne, 312 h, rate 250 g/ha, evaluated after 13 days, scale 0-100, read-out: Post-emergence activity LOLPE (100=total damage to plant; 0=no damage to plant)
Method: as §1, with “Post-Emergence” for “Pre-Emergence”

| SMILES | pest or weed control at 250 g/ha (Lolium perenne (LOLPE) [1]) [%] | pest or weed control at 250 g/ha [2] [%] | pest or weed control at 250 g/ha [3] [%] | pest or weed control at 250 g/ha (Avena fatua (AVEFA) [4]) [%] | pest or weed control at 250 g/ha [5] [%] | pest or weed control at 250 g/ha [6] [%] | pest or weed control at 250 g/ha (Avena fatua (AVEFA) [7]) [%] | pest or weed control at 250 g/ha (Lolium perenne (LOLPE) [8]) [%] |
| --- | --- | --- | --- | --- | --- | --- | --- | --- |
| Cc1cc(C)c(C2C(=O)CC(CC3CCN(C(=O)c4ccc(Cl)cc4)CC3)C2=O)c(C)c1 (stereo not drawn) [Compound T76] | 60 | 90 | 90 | 100 | 30 | 60 | 20 | 40 |
| CCSC(=O)OC1=C(c2c(C)cc(C)cc2C)C(=O)/C(=C/C2CCN(C(=O)SCC)C2)C1 (stereo not drawn) [Compound P47] | 60 | 50 | 70 | 60 | 30 | 60 | 50 | 60 |
| Cc1cc(C)c(C2C(=O)CC(CC3CCOC3C)C2=O)c(C)c1 (stereo not drawn) [Compound T156] | 100 | 70 | 90 | 90 | 80 | 100 | 70 | 100 |
| Cc1cc(C)c(C2C(=O)C/C(=C\C3CCN(C(=O)OC(C)(C)C)CC3)C2=O)c(C)c1 (stereo not drawn) [Compound T54] | 100 | 80 | 80 | 80 | 80 | 100 | 50 | 70 |
| Cc1cc(C)c(C2C(=O)C/C(=C\C3CCN(Cc4ccccc4)CC3)C2=O)c(C)c1 (stereo not drawn) [Compound T13] | 30 | 40 | 10 | 0 | 30 | 10 | 0 | 30 |
| Cc1cc(C)c(C2C(=O)CC(CC3CCN(C(=O)c4ccsc4)CC3)C2=O)c(C)c1 (stereo not drawn) [Compound T126] | 60 | 60 | 50 | 70 | 30 | 50 | 40 | 70 |
| Cc1cc(C)c(C2=C(OC(=O)OCC(C)C)CC(CC3CCOC3)C2=O)c(C)c1 (stereo not drawn) [Compound P23] | 100 | 90 | 90 | 90 | 100 | 100 | 80 | 100 |
| Cc1cccc(C)c1C1C(=O)CC(CC2CCOCC2)C1=O (stereo not drawn) [Compound T52] | 100 | 100 | 90 | 80 | 100 | 80 | 80 | 90 |
| Cc1cc(C)c(C2C(=O)CC(CC3CCN(C(=O)CC(C)C)CC3)C2=O)c(C)c1 (stereo not drawn) [Compound T113] | 70 | 70 | 90 | 100 | 60 | 90 | 70 | 100 |
| C=CCOC(=O)OC1=C(c2c(C)cc(C)cc2C)C(=O)C(CC2CCOC2)C1 (stereo not drawn) [Compound P25] | 90 | 100 | 90 | 90 | 100 | 90 | 80 | 100 |
| C=CCOC(=O)N1CCC(CC2CC(=O)C(c3c(C)cc(C)cc3C)C2=O)CC1 (stereo not drawn) [Compound T101] | 50 | 20 | 40 | 40 | 20 | 50 | 30 | 40 |
| CC(C)=CC(=O)N1CCC(CC2CC(=O)C(c3c(C)cc(C)cc3C)C2=O)C1 (stereo not drawn) [Compound T144] | 70 | 80 | 80 | 90 | 80 | 90 | 70 | 80 |
| Cc1cc(C)c(C2=C(OC(=O)N3CCCCC3)CC(CC3CCOC3)C2=O)c(C)c1 (stereo not drawn) [Compound P29] | 90 | 30 | 80 | 70 | 50 | 0 | 20 | 100 |
| Cc1cc(C)c(C2=C(OC(=O)C(C)(C)C)CC(CC3COCCO3)C2=O)c(C)c1 (stereo not drawn) [Compound P49] | 100 | 100 | 80 | 90 | 80 | 100 | 60 | 100 |
| Cc1cc(C)c(C2=C(OC(=O)C3CC3)CC(CC3CCOC3)C2=O)c(C)c1 (stereo not drawn) [Compound P14] | 100 | 90 | 90 | 90 | 100 | 100 | 80 | 100 |
| Cc1cc(C)c(C2=C(OC(=O)C3CC3)CC(CC3CCN(C(=O)C4CC4)C3)C2=O)c(C)c1 (stereo not drawn) [Compound P57] | 60 | 70 | 80 | 80 | 50 | 30 | 70 | 60 |
| Cc1cc(C)c(C2C(=O)CC(CC3CCN(C(=O)C(C)C)C3)C2=O)c(C)c1 (stereo not drawn) [Compound T142] | 70 | 60 | 90 | 90 | 90 | 90 | 80 | 70 |
| Cc1cc(C)c(C2=C(OC(=O)c3ccc(Cl)nc3)CC(CC3CCN(C(=O)c4ccc(Cl)nc4)C3)C2=O)c(C)c1 (stereo not drawn) [Compound P64] | 80 | 90 | 100 | 100 | 70 | 80 | 70 | 90 |
